Values quoted from earlier work, collected in PMC6376154 (International Journal for Parasitology: Drugs and Drug …, 2019).
Read-outs that look alike come from different tables or passages of the source.

Test system: P. falciparum 3D7 asexual blood stage
Details: cited from earlier work
[1] = MMV Malaria Box data sheet (supplement mmc2.xls), ref MMV data sheet
[2] = MMV Malaria Box data sheet (supplement mmc2.xls), ref MMV data sheet, read-out: EC50_nM
[3] = value(s) per source (GSK, GNF, StJude), separated by semicolon, ref ChEMBL-NTD, read-out: CHEMBL EC50
[4] = MMV Malaria Box sheet, ref MMV data sheets
[5] = MMV Malaria Box sheet, ref MMV data sheets, read-out: EC50_nM
[6] = source StJude, ref ChEMBL_NTD, read-out: CHEMBL EC50
[7] = source GSK, ref ChEMBL_NTD, read-out: CHEMBL EC50
[8] = ChEMBL-NTD value per source (GNF, GSK, StJude), several values in a cell follow the order of the sources, read-out: CHEMBL EC50
[9] = MMV Malaria Box data sheet, ref MMV data sheets
[10] = MMV Malaria Box data sheet, ref MMV data sheets, read-out: EC50_nM
[11] = source GNF, ref ChEMBL_NTD, read-out: CHEMBL EC50

O=C(Nc1ccc(F)c(Cl)c1)Nc1ccc(Cl)c(Cl)c1 [MMV665953]
percent_inh @ 5 uM [1]: 95%
EC50 [2]: 2060 nM
EC50 [3]: 5410 nM

O=C(NCC1Cc2cccc(-c3ccncc3)c2O1)c1csc2c1CCCC2 (stereo not drawn) [MMV665954]
percent_inh @ 5 uM [1]: 87%
EC50 [2]: 1720 nM
EC50 [3]: 8740 nM

CCN(CC)CCCNc1nc(-c2ccc(Cl)cc2)nc2ccccc12 [MMV665961]
percent_inh @ 5 uM [1]: 92%
EC50 [3]: 15000 nM

COc1cccc(C(=O)NC(c2ccc(C)cc2)c2cc(Cl)c3cccnc3c2O)c1 (stereo not drawn) [MMV665969]
percent_inh @ 5 uM [4]: 97%
EC50 [5]: 393 nM
EC50 [6]: 15000 nM

CCOC(=O)C1=C(C)N=c2sc(=Cc3cc(Cl)ccc3O)c(=O)n2C1c1ccc(OC)cc1 (stereo not drawn) [MMV665971]
percent_inh @ 5 uM [4]: 97%
EC50 [5]: 489 nM
EC50 [7]: 746 nM
EC50 [6]: 15000 nM

O=C(Cc1ccccc1)NC(c1ccc(Cl)cc1)c1c(O)ccc2ccccc12 (stereo not drawn) [MMV665972]
EC50 [8]: 15000 nM

CCOC(=O)c1cn(CC)c2cc(N(C)CCc3ccc(OC)c(OC)c3)c(F)cc2c1=O [MMV665977]
percent_inh @ 5 uM [9]: 99%
EC50 [10]: 205 nM
EC50 [11]: 103 nM
EC50 [7]: 425 nM

FC(F)(F)c1cccc(CNC2CCN(CCc3ccccc3)CC2)c1 [MMV665979]
percent_inh @ 5 uM [9]: 96%
EC50 [10]: 685 nM
EC50 [11]: 174 nM

OC1CCCCC1C1(NC(=S)Nc2ccccc2)CCCCC1 (stereo not drawn) [MMV665980]
percent_inh @ 5 uM [4]: 59%
EC50 [11]: 211 nM

CCCCCCc1cc(O)c2c3c(c(=O)oc2c1)CCC(C)C3 (stereo not drawn) [MMV665987]
percent_inh @ 5 uM [4]: 96%
EC50 [5]: 534 nM
EC50 [11]: 364 nM

Cc1nc2ccccc2c(O)c1CC=C(Cl)Cl [MMV665994]
percent_inh @ 5 uM [4]: 89%
EC50 [5]: 836 nM
EC50 [11]: 498 nM

CN1c2ccccc2N(C)C1c1ccc2c(c1)OCO2 [MMV666009]
percent_inh @ 5 uM [1]: 60%
EC50 [2]: 994 nM
EC50 [3]: 1120 nM

Cc1ccc(OCCCCCCNCCO)c(C)c1 [MMV666020]
percent_inh @ 5 uM [4]: 49%
EC50 [11]: 1970 nM

Cc1ccc(-c2cc3c(nn2)-c2ccccc2C3=O)cc1 [MMV666021]
percent_inh @ 5 uM [9]: 99%
EC50 [10]: 94.4 nM
EC50 [11]: 2000 nM

COc1ccc(C(=O)NC(c2ccccc2Cl)c2cc(Cl)c3cccnc3c2O)cc1 (stereo not drawn) [MMV666022]
EC50 [8]: 2370 nM

c1ccc(Cn2c(N=Nc3c(Nc4ccccc4)ccc4ccccc34)nc3ccccc32)cc1 [MMV666023]
percent_inh @ 5 uM [9]: 96%
EC50 [10]: 36.8 nM
EC50 [11]: 2730 nM

OC(Cn1nnc2ccccc21)Cn1c2ccc(Br)cc2c2cc(Br)ccc21 (stereo not drawn) [MMV666025]
EC50 [8]: 3370 nM

COc1ccc(-c2cc3c(nn2)-c2ccccc2C3=O)cc1 [MMV666026]
EC50 [8]: 3840 nM

COc1ccc(C(=O)NC(c2ccc(Cl)cc2Cl)c2cc(Cl)c3cccnc3c2O)cc1 (stereo not drawn) [MMV666054]
percent_inh @ 5 uM [4]: 96%
EC50 [5]: 513 nM
EC50 [7]: 499 nM

O=C(Nc1ccc(Cl)cc1C(=O)Nc1ccncc1)c1ccc(Cl)cc1Cl [MMV666057]
percent_inh @ 5 uM [9]: 94%
EC50 [7]: 611 nM

COc1ccc(CN2CCCC(C(=O)c3ccc(C(F)(F)F)cc3)C2)c(O)c1 (stereo not drawn) [MMV666060]
EC50 [8]: 849 nM

COc1cccc(O)c1CN1CCC2(CCCN(Cc3ccc(F)cc3)C2)C1 (stereo not drawn) [MMV666061]
percent_inh @ 5 uM [1]: 95%
EC50 [2]: 530 nM
EC50 [3]: 865 nM

Cc1ccc(N2C(=O)C3C(C2=O)C2(c4ccccc4)C(=O)C3(c3ccccc3)C(c3ccccc3)=C2c2ccccc2)cc1 (stereo not drawn) [MMV666062]
percent_inh @ 5 uM [9]: 98%
EC50 [10]: 282 nM
EC50 [7]: 869 nM

COc1ccc(CNC2CCN(c3ccc(NC(=O)c4cccc(Cl)c4)cc3)CC2)cc1OC [MMV666067]
percent_inh @ 5 uM [1]: 97%
EC50 [2]: 663 nM
EC50 [3]: 1020 nM

COc1ccc(CCN2CCC(CN(C)Cc3cnn(-c4ccccc4)c3)CC2)cc1 [MMV666069]
percent_inh @ 5 uM [1]: 96%
EC50 [2]: 1430 nM
EC50 [3]: 1160 nM

O=C(NC1CCCC1)c1ccc(N2CCC(NCc3cccc(C(F)(F)F)c3)CC2)cc1 [MMV666070]
percent_inh @ 5 uM [1]: 93%
EC50 [3]: 1330 nM

Cc1ccc(CN2CCC(C(=O)Nc3ccc(-c4cc5ccccc5[nH]4)cc3)CC2)o1 [MMV666071]
percent_inh @ 5 uM [1]: 77%
EC50 [3]: 1420 nM

COCCNC(=O)c1ccc(OC2CCN(Cc3ccc(F)c(F)c3)CC2)c(Cl)c1 [MMV666072]
percent_inh @ 5 uM [9]: 91%
EC50 [7]: 1490 nM

COc1ccc(C2N(C)c3ccccc3N2C)cc1 [MMV666075]
percent_inh @ 5 uM [1]: 62%
EC50 [3]: 15000 nM

Cc1ccc2cc3c(N)c4c(C)ccc(C)c4nc3nc2c1 [MMV666079]
percent_inh @ 5 uM [4]: 98%
EC50 [5]: 1310 nM
EC50 [11]: 431 nM

O=C(NC(c1ccccc1)c1ccc2cccnc2c1O)c1ccccc1 (stereo not drawn) [MMV666080]
percent_inh @ 5 uM [1]: 95%
EC50 [2]: 1170 nM

CCCc1c(C)nc2ccccc2c1O [MMV666081]
percent_inh @ 5 uM [1]: 88%
EC50 [3]: 630 nM

CCCC(c1nnnn1C1CCCCC1)N1CCN(C(=O)c2ccco2)CC1 (stereo not drawn) [MMV666093]
percent_inh @ 5 uM [1]: 82%
EC50 [3]: 1330 nM

CCCc1c(C)nc2ccc(Br)cc2c1O [MMV666095]
percent_inh @ 5 uM [4]: 64%
EC50 [5]: 1190 nM
EC50 [11]: 1510 nM

COc1ccc(C2=C(c3ccc(OC)cc3)C3(c4ccccc4)C(=O)C2(c2ccccc2)C2C(=O)N(c4ccc(C)cc4)C(=O)C23)cc1 (stereo not drawn) [MMV666101]
percent_inh @ 5 uM [9]: 98%
EC50 [10]: 148 nM
EC50 [11]: 12500 nM

CN(C)c1ccc(-c2nc3cc(N)ccc3[nH]2)cc1 [MMV666102]
percent_inh @ 5 uM [1]: 64%
EC50 [3]: 239 nM

CCn1c(SCC(=O)Nc2cc(C(F)(F)F)ccc2Cl)nc2ccccc2c1=O [MMV666103]
percent_inh @ 5 uM [9]: 91%
EC50 [10]: 1000 nM
EC50 [7]: 397 nM

COCCN(C(=O)Cc1cccs1)C(C(=O)NCc1ccc(OC)cc1)c1ccc(C(C)C)cc1 (stereo not drawn) [MMV666105]
percent_inh @ 5 uM [9]: 92%
EC50 [10]: 1190 nM
EC50 [7]: 845 nM

O=C(NC1CCCCC1)C(c1cccs1)N(CCc1ccccc1)C(=O)c1ccco1 (stereo not drawn) [MMV666106]
EC50 [8]: 1040 nM

O=C(CCc1ccco1)NC1CCN(CC2(c3ccc(Cl)cc3)CCC2)CC1 [MMV666108]
percent_inh @ 5 uM [1]: 96%
EC50 [2]: 1140 nM
EC50 [3]: 1450 nM

CCOC(=O)C1(Cc2ccccc2)CCN(Cc2cccc(OC)c2O)CC1 [MMV666109]
percent_inh @ 5 uM [4]: 95%
EC50 [6]: 2290 nM

C=C(C)CCC(C)N1CCC(N2CCC(C(=O)NCCc3ccccc3)CC2)CC1 (stereo not drawn) [MMV666110]
percent_inh @ 5 uM [1]: 96%
EC50 [2]: 1750 nM
EC50 [3]: 4260 nM

Oc1ccccc1CN1CCC2(CCCN(Cc3ccccc3F)C2)C1 (stereo not drawn) [MMV666116]
percent_inh @ 5 uM [1]: 98%
EC50 [2]: 548 nM
EC50 [3]: 679 nM

CC(C)(C)c1ccc(C(=O)Nc2c3c(nn2-c2cccc(Cl)c2)CSC3)cc1 [MMV666123]
percent_inh @ 5 uM [4]: 93%
EC50 [6]: 15000 nM

CC1=C(CC(=O)c2cccc([N+](=O)[O-])c2)C(=O)c2ccccc2C1=O [MMV666125]
percent_inh @ 5 uM [4]: 95%
EC50 [5]: 381 nM
EC50 [11]: 2840 nM

CSC1=NC(=Nc2c(C)cccc2C)C2(CCC(C(C)(C)C)CC2)N1c1ccc(Cl)cc1 (stereo not drawn) [MMV666596]
percent_inh @ 5 uM [9]: 96%
EC50 [10]: 135 nM
EC50 [11]: 1480 nM

CCCCCCc1cc2cc(-c3nc4ccccc4[nH]3)c(=Nc3ccccc3C)oc2cc1O [MMV666597]
EC50 [8]: 2120 nM

O=c1nc(C=Cc2ccc(Br)cc2)oc2ccccc12 [MMV666599]
percent_inh @ 5 uM [4]: 94%
EC50 [7]: 1050 nM

CCOC(=O)c1c(C)n(-c2ccc(Cl)cc2)c2ccc(OC(=O)C=Cc3ccccc3)cc12 [MMV666600]
percent_inh @ 5 uM [9]: 97%
EC50 [10]: 216 nM
EC50 [7]: 698 nM

CCOC(=O)C1=C(c2ccccc2)N=c2sc(=Cc3cc(C)n(-c4ccc(F)cc4)c3C)c(=O)n2C1c1cccc(OC)c1OC (stereo not drawn) [MMV666601]
percent_inh @ 5 uM [9]: 94%
EC50 [10]: 154 nM
EC50 [11]: 2320 nM

CCOC(=O)C1=C(C)N=c2sc(=Cc3ccccc3O)c(=O)n2C1c1ccc(OC)c2ccccc12 (stereo not drawn) [MMV666604]
percent_inh @ 5 uM [4]: 97%
EC50 [5]: 1510 nM
EC50 [7]: 1260 nM

O=[N+]([O-])c1ccc(C=NNc2nc3ccccc3[nH]2)cc1 [MMV666607]
percent_inh @ 5 uM [9]: 99%
EC50 [10]: 142 nM
EC50 [11]: 818 nM
EC50 [7]: 283 nM

COc1ccccc1C(=O)ON=C(N)Cc1cccc2ccccc12 [MMV666686]
EC50 [8]: 352 nM

COc1cc(C(=O)ON=C(N)Cc2cccc3ccccc23)cc(OC)c1OC [MMV666687]
EC50 [8]: 280 nM

Cc1cc(C=C2SC(=Nc3ccccc3)N(C3CCCC3)C2=O)c(C)n1-c1ccc(Cl)cc1 [MMV666688]
percent_inh @ 5 uM [9]: 97%
EC50 [10]: 263 nM
EC50 [7]: 876 nM

COc1ccc(Nc2nc(NN=Cc3ccc(O)cc3)nc(Nc3ccc([N+](=O)[O-])cc3)n2)cc1 [MMV666689]
EC50 [8]: 1120 nM

COc1ccc(C=C2SC(=N)N(c3ccccc3OC)C2=O)cc1 [MMV666691]
percent_inh @ 5 uM [9]: 97%
EC50 [10]: 168 nM
EC50 [7]: 300 nM

CCCCCCc1cc2cc(-c3csc(C=Cc4ccccc4)n3)c(=O)oc2cc1O [MMV666692]
EC50 [8]: 970 nM

COc1cccc(C=Cc2nc(=O)c3ccccc3o2)c1OC [MMV666693]
percent_inh @ 5 uM [9]: 96%
EC50 [10]: 23.8 nM
EC50 [7]: 64.4 nM

CN(C)c1ccc(N2C(N)=NC(N)=NC2(C)C)cc1 [MMV667487]
percent_inh @ 2 uM (2 uM, MMV Malaria Box sheet, ref MMV data sheets): 95%
EC50 [11]: 18.8 nM
EC50 [6]: 72.8 nM

COc1ccc(CCn2c(=N)c(C(=O)NCc3cccnc3)cc3c(=O)n4cccc(C)c4nc32)cc1 [MMV667488]
EC50 [8]: 1400 nM
